Experimental data: patent US20160304957A1, “TREATMENT AND MODULATION OF GENE EXPRESSION AND SKIN AGING” (DSM NUTRITIONAL PRODUCTS LTD., priority 2006, published 2016)

Experiments:
HaCaT cells = system: HaCaT cells
Description: HaCaT cells were obtained from Prof. Fusenig, German Cancer Research Centre, Heidelberg. To gather cells more representative for the upper epidermal layer, we cloned the original cells by endpoint dilution. […] Cytokeratins were detected using anti-cytokeratin clones AE1/AE3 (Boehringer Mannheim, Germany) and anti-cytokeratin 1,10 antibody (Biogenesis Ltd., Poole, UK), respectively. […] Cells were propagated in FAD medium (DMEM/HAM's F12 3:1, Invitrogen); 5% NuSerum IV culture supplement and Miton™ 1:1000 (both Becton Dickinson, Bedford, Mass., USA). On day 0 of the experiment, cells were seeded at 2×10^5 cells per 60 mm dish. Cells were counted using a Coulter Multisizer (IG Instrumenten Gesellschaft, Zurich, Switzerland). […] On days 1 and 2, the media were replaced with fresh β-carotene-containing FAD medium without phenol red; 2% NuSerum; penicillin/streptomycin.
β-Carotene stock solutions and β-carotene-containing media were prepared under reduced light conditions. All-E-β-carotene was synthesized by DSM Nutritional Products (Kaiseraugst, Switzerland). β-carotene was dissolved in tetrahydrofurane (THF containing 0.025% butyl hydroxytoluol; Fluka Chemie A G, Buchs, Switzerland). Immediately before preparing the β-carotene stock solution, THF was purified over a basic aluminum oxide grade 1 (Camag, Muttenz, Switzerland) column. The n-carotene stock solution was prepared fresh for each experiment, and stored under argon at −20° C. until use. To prepare β-carotene-containing medium, the β-carotene stock solution was first diluted 1:1 with ethanol. This β-carotene/solvent mixture was then added to the cell culture medium to give a final concentration of 0.5, 1.5, or 3 μM β-carotene. β-carotene-containing medium was prepared fresh for the daily medium changes. The solvent concentration in the medium was kept constant at 0.5% for all treatment conditions.
All extraction and analytical procedures were carried out in brown glass, and under reduced light conditions. Acetonitrile, tert-butylmethylether, acetone and ethanol p. a. were from E. Merck K G (Darmstadt, Germany). Ammonium acetate p.a., butylated hydroxy toluene p.a., tetrahydrofuran p.a., triethylamine p.a., were from Fluka Chemie A G (Buchs, Switzerland). HPLC grade solvents for stock solutions, dilutions, and sample solvent mixtures were additionally purified over basic aluminum oxide grade 1 (Camag, Muttenz, Switzerland). To determine the β-carotene content of cells, the cell layer was washed 5 times with PBS/2% BSA. The cells were detached by trypsin/EDTA 0.05/0.02% and centrifuged at 10,000×g for 1 minute Cell pellets were lysed with acetone containing 0.025% BHT (v/w), vortex-mixed and dried in a speed-vac. The dried residue was extracted with ethanol/tBME/THF, 9:5:1, containing 0.025% of BHT (v/w) by vigorous vortex-mixing for one minute, and centrifugation for 3 minutes at 10,000×g. An aliquot of the clear supernatant was injected into the HPLC system. Cell culture medium was directly extracted with the solvent mixture described above, and the extract was treated as described for the cell pellets.
The HPLC system consisted of a 520 pump, a 565 autosampler cooled at 6° C., a 540+ diode array detector, a SDU 2003 solvent degasser unit and the Chroma 3000 data analysis system from Bio-Tek Instruments (Basel, Switzerland). A Vydac 218TP54 column (250×4.5 mm i.d., 300 angstrom pore wide) from the Separation Group (Hesperia, USA) was used for separation.

[1] = system: retinoic acid response elements (RAREs); test: RA-dependent reporter gene assay pGL3 (RARE)5 tk luc in HaCaT cells; format: cell-based, human
Description: HaCaT cells were transiently transfected with the reporter construct pGL3 (RARE)5 tk luc, containing five DR5-type retinoic acid response elements (“RAREs”). Luciferase activity was determined after 40 hours treatment with β-carotene. Values are means±standard error from two experiments with four replicates each.
HaCaT cells were seeded at a density of 3×10^6 cells/well in 6 well plates (BD Biosciences, Basel, Switzerland) in FAD medium containing 2% NuSerum. The cells were transfected the next day using 1 μg reporter plasmid (pGL3 (RARE)5 tk luc) and 5 μl Lipofectin (1 μg/μL; Invitrogen, Basel, Switzerland) per well. The RARE is a DR5 element identical to the wild type element of the RARβ2 promoter. The spacing between the DR5 sites is 25 nucleotides. The transfections were performed for 7.5 hours in serum-free FAD medium according to the manufacturer's protocol. […] Transactivation of the reporter gene was determined after 40 hours of β-carotene treatment.
To generate the RA standard curve, 9-cis RA and all-trans RA were used together at concentrations ranging from 10^−10 to 10^−8 M each. […] Relative luciferase units (RLU) were quantified in a luminoskan reader (Thermo Labsystems, Vantaa, Finland), and corrected by protein concentrations as determined with the BCA assay (Pierce, Rockford, USA).

non-melanoma skin cancer = conditions: clinical intervention trials; cited from earlier work

Question: With `CC1=C(/C=C/C(C)=C/C=C/C(C)=C/C=C/C=C(C)/C=C/C=C(C)/C=C/C2=C(C)CCCC2(C)C)C(C)(C)CCC1` [β-carotene, All-E-β-carotene] as the compound, how does the Retinol cellular content (HaCaT cells) read?
Answer: <LOD

Question: And the “Retinyl Palmitate cellular content” value (HaCaT cells)?
Answer: <LOD

Question: What about the “cellular β-carotene content relative to 72 hours” value (HaCaT cells) of the same compound?
Answer: about half

Question: And the “retinol or retinyl esters formed from β-carotene” value (HaCaT cells)?
Answer: do not produce detectable amounts

Question: What about the “time of peak cellular β-carotene concentration” value (HaCaT cells) of the same compound?
Answer: 72 h

Question: What about the “activation of the luciferase reporter” value ([1]; 1 or 3 μM β-carotene, 40 hours) of the same compound?
Answer: comparable to what was achieved after treating the cells with a combination of all-trans RA and 9-cis RA at 10 nM each

Question: And the “RARE-dependent gene activation after UVA irradiation, relative to unirradiated” value ([1]; cells irradiated with UVA prior to measurement)?
Answer: about 70%

Question: And the “prevention of non-melanoma skin cancer” value (non-melanoma skin cancer)?
Answer: no significant prevention
